A value given as a limit tells only on which side of the number the result lay.

Type in all cases: cell-based, human
The test system of assay [1] is JJ5 breast cancer cells. Kind of assay: Growth inhibition assay against JJ5 breast cancer cells. Particulars: 4 days culture. As to the method: JJ5 breast cancer cells (prepared from BCBM JJ5) expressing approximately 10^6 epidermal growth factor receptors/cell were incubated with EGF-^111In-labeled transferrin composition, unlabeled hEGF or ^111In-oxine, centrifuged to remove free ligand, then assayed and seeded (10^6 cells/dish) into 35 mm culture dishes. Growth medium was added and the cells were cultured at 37° C./5% CO^2 for 4 days. The cells were then recovered by trypsinization and counted in a hemocytometer. Control dishes contained cells cultured in growth medium containing ^111In-DTPA or growth medium alone.

For assay [2], the system named is JJ5 breast cancer cells. Kind of assay: Cytotoxicity (colony-forming) assay against JJ5 breast cancer cells. Particulars: 14 days. As to the method:
JJ5 breast cancer cells were incubated with increasing amounts EGF-^111In-labeled transferrin composition or ^111In-oxine, centrifuged to remove free ligand, assayed and then seeded into 50 mm culture dishes. The number of cells seeded was varied from 3×10^4 to 3×10^6cells to obtain approximately 400 viable colonies/dish taking into account the plating efficiency and the expected level of cytotoxicity. Control dishes contained JJ5 breast cancer cells which were incubated with normal saline. Growth medium was added and the cells were cultured at 37° C./5% CO^2 for 14 days. The growth medium was removed and the colonies were stained with methylene blue (1% in a 1:1 mixture of ethanol and water) then washed twice. The number of colonies per dish was counted using a manual colony counter (Manostat Corp). The plating efficiency was calculated by dividing the number of colonies observed by the number of cells seeded in each dish. The surviving fraction at increasing amounts of EGF-^111In-labeled transferrin composition or ^111In-oxine was calculated by dividing the plating efficiency for dishes containing treated cells with that observed for control dishes with normal saline.

Assay [3] concerns JJ5 Breast Cancer cells (EGFR). Kind of assay: Binding of EGF-111In-labeled transferrin composition to JJ5 breast cancer cells. As to the method:
For the normal breast cell line HBL-100, 8000 EGFR/cell has been reported. The expression of EGFR in breast cancer cell lines has a reported range of 800 EGFR/cell for MCF-7 cells to 10^6 EGFR/cell for MDA-MB-468 cells. […] Utilizing the Auger electron emitter ^111In was used in the initial experiments to illustrate the utility of the invention using EGF-^111In-labeled transferrin compositions. The EGF-^111In-labeled transferrin (0.25-80 ng) was incubated with 1.5×10^6 cells/dish JJ5 Breast Cancer (prepared from BCBM JJ5) cells in 1 mL of 0.1% human serum albumin in 35 mm multiwell culture dishes at 37° C. for 30 minutes. The cells were transferred to a centrifuge tube and centrifuged. The cell pellet was separated from the supernatant and counted in a g-scintillation counter to determine bound (B) and free (F) radioactivity. Non-specific binding was determined by conducting the assay in 100 nM hEGF. The kinetics of binding was determined by incubating 1 ng of EGF-^111In-labeled transferrin composition with 3×10^6 JJ5 Breast Cancer cells at 37° C. and determining the proportion of radioactivity bound to the cells at various times up to 24 hours. Internalized fraction was measured by determining the proportion of radioactivity which could not be displaced from the cell surface by 100 nM hEGF. Cell-associated binding (surface-binding and intracellular accumulation) was expressed as a percentage of medium radioactivity bound per mg of cell study protein.

`[In+3].[O-]c1cccc2cccnc12.[O-]c1cccc2cccnc12.[O-]c1cccc2cccnc12` [^111In-oxine, reference compound]: in the assay on JJ5 breast cancer cells [1] (3.5 pCi/cell), the “growth inhibition of the JJ5 cells” value is on record as 91%. Also, the cell killing result in the assay on JJ5 breast cancer cells [2] (<6 pCi/cell) was “greater than 99%”.

Regarding “EGF-^111In-labeled transferrin composition: human EGF linked to transferrin radiolabeled with the Auger electron emitter 111In at the iron-binding sites”, in assay [3] (JJ5 cells), the “internalization by cancer cells” value is “rapidly internalized” and the “number of binding sites” value is 2.7×10^6. In assay [3] (JJ5 cells, 37° C.), the “kinetics of binding to the breast cancer cells” value is “rapidly bound” and the “time retained by the breast cancer cells” value is “at least 24 hours”. The “affinity constant for binding to JJ5 cells” value in assay [3] (JJ5 cells, 37° C., 30 minutes) was 8e+08 L/mol. For the same compound, in assay [3] (over a 24 hour period at 37° C.), the “111In radioactivity lost from the cells in vitro” value is recorded as below 8%. Moreover, the “growth inhibition of the JJ5 cells compared to the medium control” value in the assay on JJ5 breast cancer cells [1] (3.4 pCi/cell) was found to be 83%. In addition, the “reduction in cell survival for JJ5 cells” value in the assay with JJ5 breast cancer cells [2] (8 pCi/cell) was 99%.

The values above are taken from patent publication US20040220085A1, “Compositions for nucleic acid delivery” (priority 2003, published 2004).
